Reference: PubChem BioAssay (NCI)
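Cells were grown in 96-well plates and exposed to each compound for 48 hours at five concentrations; endpoints were interpolated linearly between bracketing concentrations, or set to the highest concentration if not reached. The concentration for 50% growth inhibition is given as GI50. TGI is the concentration that stops growth completely.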

Key:
Assay in all cases: NCI-60 cell line screen, 48 h
786-0 renal = system: 786-0 renal
A498 renal = system: A498 renal
A549 NSCLC = system: A549 NSCLC
ACHN renal = system: ACHN renal
CAKI-1 renal = system: CAKI-1 renal
CCRF-CEM leukemia = system: CCRF-CEM leukemia
COLO 205 colon = system: COLO 205 colon
DLD-1 colon = system: DLD-1 colon
DMS 114 small cell lung = system: DMS 114 small cell lung
DMS 273 small cell lung = system: DMS 273 small cell lung
EKVX NSCLC = system: EKVX NSCLC
HCC-2998 colon = system: HCC-2998 colon
HCT-116 colon = system: HCT-116 colon
HCT-15 colon = system: HCT-15 colon
HL-60(TB) leukemia = system: HL-60(TB) leukemia
HOP-18 NSCLC = system: HOP-18 NSCLC
HOP-62 NSCLC = system: HOP-62 NSCLC
HOP-92 NSCLC = system: HOP-92 NSCLC
HT29 colon = system: HT29 colon
IGROV1 ovarian = system: IGROV1 ovarian
K-562 leukemia = system: K-562 leukemia
KM12 colon = system: KM12 colon
KM20L2 colon = system: KM20L2 colon
LOX IMVI melanoma = system: LOX IMVI melanoma
LXFL 529 NSCLC = system: LXFL 529 NSCLC
M14 melanoma = system: M14 melanoma
M19-MEL melanoma = system: M19-MEL melanoma
MALME-3M melanoma = system: MALME-3M melanoma
MOLT-4 leukemia = system: MOLT-4 leukemia
NCI-H226 lung = system: NCI-H226 lung
NCI-H23 lung = system: NCI-H23 lung
NCI-H460 lung = system: NCI-H460 lung
OVCAR-3 ovarian = system: OVCAR-3 ovarian
OVCAR-4 ovarian = system: OVCAR-4 ovarian
OVCAR-5 ovarian = system: OVCAR-5 ovarian
OVCAR-8 ovarian = system: OVCAR-8 ovarian
RPMI-8226 leukemia = system: RPMI-8226 leukemia
RXF 393 renal = system: RXF 393 renal
SF-268 CNS = system: SF-268 CNS
SF-295 CNS = system: SF-295 CNS
SF-539 CNS = system: SF-539 CNS
SK-MEL-2 melanoma = system: SK-MEL-2 melanoma
SK-MEL-28 melanoma = system: SK-MEL-28 melanoma
SK-MEL-5 melanoma = system: SK-MEL-5 melanoma
SK-OV-3 ovarian = system: SK-OV-3 ovarian
SN12C renal = system: SN12C renal
SNB-19 CNS = system: SNB-19 CNS
SNB-75 CNS = system: SNB-75 CNS
SNB-78 CNS = system: SNB-78 CNS
SR leukemia = system: SR leukemia
SW-620 colon = system: SW-620 colon
TK-10 renal = system: TK-10 renal
U251 CNS = system: U251 CNS
UACC-257 melanoma = system: UACC-257 melanoma
UACC-62 melanoma = system: UACC-62 melanoma
UO-31 renal = system: UO-31 renal

`C[CH2][Sn]1([CH2]C)[O]C(=O)[O][Sn]([CH2]C)([CH2]C)[O]1` showed a GI50 (786-0 renal) of 17.6 µM, a TGI (786-0 renal) of 32 µM and a GI50 (A498 renal) of 17.7 µM. The TGI (A498 renal) was 32.1 µM, the GI50 (A549 NSCLC) was > 65.4 µM and the TGI (A549 NSCLC) was > 100 µM. For the same compound, the GI50 (ACHN renal) was > 50.4 µM, the TGI (ACHN renal) was > 64.6 µM and the GI50 (CAKI-1 renal) was 1.44 µM. The TGI (CAKI-1 renal) was 9.72 µM, the GI50 (CCRF-CEM leukemia) was 5.39 µM and the TGI (CCRF-CEM leukemia) was 31.8 µM. For the same compound, the GI50 (COLO 205 colon) was > 41.1 µM, the TGI (COLO 205 colon) was > 57.1 µM and the GI50 (DLD-1 colon) was 25.6 µM. The TGI (DLD-1 colon) was > 57.8 µM, the GI50 (DMS 114 small cell lung) was 12.6 µM and the TGI (DMS 114 small cell lung) was 26.7 µM. For the same compound, the GI50 (DMS 273 small cell lung) was 59.4 µM, the TGI (DMS 273 small cell lung) was > 100 µM and the GI50 (EKVX NSCLC) was > 41.8 µM. For the same compound, the TGI (EKVX NSCLC) was > 57 µM, the GI50 (HCC-2998 colon) was 60 µM and the TGI (HCC-2998 colon) was > 100 µM. The GI50 (HCT-116 colon) was > 42.9 µM, the TGI (HCT-116 colon) was > 57.7 µM and the GI50 (HCT-15 colon) was 25.3 µM. The TGI (HCT-15 colon) was > 54.4 µM, the GI50 (HL-60(TB) leukemia) was 26.4 µM and the TGI (HL-60(TB) leukemia) was 81.7 µM. The GI50 (HOP-18 NSCLC) was 17.2 µM, the TGI (HOP-18 NSCLC) was 31.2 µM and the GI50 (HOP-62 NSCLC) was 41.8 µM. The TGI (HOP-62 NSCLC) was > 68.2 µM, the GI50 (HOP-92 NSCLC) was 17.7 µM and the TGI (HOP-92 NSCLC) was 33.1 µM. The GI50 (HT29 colon) was 25.6 µM, the TGI (HT29 colon) was > 62.2 µM and the GI50 (IGROV1 ovarian) was > 57.6 µM. The TGI (IGROV1 ovarian) was > 87.8 µM, the GI50 (K-562 leukemia) was 13.7 µM and the TGI (K-562 leukemia) was 78.1 µM. The GI50 (KM12 colon) was > 61.5 µM, the TGI (KM12 colon) was > 100 µM and the GI50 (KM20L2 colon) was 31.6 µM. For the same compound, the TGI (KM20L2 colon) was > 87.7 µM, the GI50 (LOX IMVI melanoma) was 17.2 µM and the TGI (LOX IMVI melanoma) was 33 µM. The GI50 (LXFL 529 NSCLC) was 8.78 µM, the TGI (LXFL 529 NSCLC) was 21.7 µM and the GI50 (M14 melanoma) was 18.8 µM. The TGI (M14 melanoma) was 33.1 µM, the GI50 (M19-MEL melanoma) was 18.5 µM and the TGI (M19-MEL melanoma) was 37.9 µM. The GI50 (MALME-3M melanoma) was 16 µM, the TGI (MALME-3M melanoma) was 29.9 µM and the GI50 (MOLT-4 leukemia) was 41.7 µM. For the same compound, the TGI (MOLT-4 leukemia) was > 100 µM, the GI50 (NCI-H226 lung) was > 43.8 µM and the TGI (NCI-H226 lung) was > 58.4 µM. For the same compound, the GI50 (NCI-H23 lung) was 17.9 µM, the TGI (NCI-H23 lung) was 35 µM and the GI50 (NCI-H460 lung) was > 60.3 µM. For the same compound, the TGI (NCI-H460 lung) was > 100 µM, the GI50 (OVCAR-3 ovarian) was 23.5 µM and the TGI (OVCAR-3 ovarian) was > 61.8 µM. The GI50 (OVCAR-4 ovarian) was > 100 µM, the TGI (OVCAR-4 ovarian) was > 100 µM and the GI50 (OVCAR-5 ovarian) was > 45.8 µM. The TGI (OVCAR-5 ovarian) was > 59.5 µM, the GI50 (OVCAR-8 ovarian) was 14.2 µM and the TGI (OVCAR-8 ovarian) was 20.4 µM. It also gave a GI50 (RPMI-8226 leukemia) of 17.2 µM, a TGI (RPMI-8226 leukemia) of 47.6 µM and a GI50 (RXF 393 renal) of 15.5 µM. The TGI (RXF 393 renal) was 30.3 µM, the GI50 (SF-268 CNS) was 18.9 µM and the TGI (SF-268 CNS) was 36.6 µM. The GI50 (SF-295 CNS) was 19.4 µM, the TGI (SF-295 CNS) was 34.7 µM and the GI50 (SF-539 CNS) was 19.7 µM. It also gave a TGI (SF-539 CNS) of 38.5 µM, a GI50 (SK-MEL-2 melanoma) of 15.8 µM and a TGI (SK-MEL-2 melanoma) of 29.6 µM. For the same compound, the GI50 (SK-MEL-28 melanoma) was 13 µM, the TGI (SK-MEL-28 melanoma) was 25.8 µM and the GI50 (SK-MEL-5 melanoma) was 21.1 µM. For the same compound, the TGI (SK-MEL-5 melanoma) was 40.8 µM, the GI50 (SK-OV-3 ovarian) was > 100 µM and the TGI (SK-OV-3 ovarian) was > 100 µM. For the same compound, the GI50 (SN12C renal) was > 63.4 µM, the TGI (SN12C renal) was > 100 µM and the GI50 (SNB-19 CNS) was 18.4 µM. The TGI (SNB-19 CNS) was 33.6 µM, the GI50 (SNB-75 CNS) was > 63.8 µM and the TGI (SNB-75 CNS) was > 86.7 µM. The GI50 (SNB-78 CNS) was 17.1 µM, the TGI (SNB-78 CNS) was 37.4 µM and the GI50 (SR leukemia) was 30.8 µM. The TGI (SR leukemia) was > 100 µM, the GI50 (SW-620 colon) was 15.2 µM and the TGI (SW-620 colon) was 29.2 µM. The GI50 (TK-10 renal) was 18.7 µM, the TGI (TK-10 renal) was 32.8 µM and the GI50 (U251 CNS) was 14.8 µM. For the same compound, the TGI (U251 CNS) was 29.8 µM, the GI50 (UACC-257 melanoma) was 17.8 µM and the TGI (UACC-257 melanoma) was 33 µM. The GI50 (UACC-62 melanoma) was 16.8 µM, the TGI (UACC-62 melanoma) was 32.5 µM and the GI50 (UO-31 renal) was 45.8 µM. For the same compound, the TGI (UO-31 renal) was > 100 µM.
